Experimental data reported in patent US7544694B2, “Substituted diaza-spiro-[5.5]-undecane derivatives and their use as neurokinin antagonists” (Janssen Pharmaceutica N.V., priority 2004, dated 2009).

How the values were obtained:
Type in all cases: cell-based
NK1 = NK1 (Homo sapiens, UniProt P25103); test: Signal transduction (ST), intracellular Ca++ (FLIPR), functional NK1 antagonistic activity; conditions: antagonist, read-out: NK1 pIC50 (converted)
Description: (§1) This test evaluates in vitro functional NK1 antagonistic activity. For the measurements of intracellular Ca^++ concentrations the cells were grown on 96-well (black wall/transparent bottom) plates from Costar for 2 days until they reached confluence. The cells were loaded with 2 μM Fluo3 in DMEM containing 0.1% BSA and 2.5 mM probenecid for 1 h at 37° C. They were washed 3× with a Krebs buffer (140 mM NaCl, 1 mM MgCl2×6H2O, 5 mM KCl, 10 mM glucose, 5 mM HEPES; 1.25 mM CaCl2; pH 7.4) containing 2.5 mM probenecid and 0.1% BSA (Ca^++-buffer). The cells were preincubated with a concentration range of antagonists for 20 min at RT and Ca^++-signals after addition of the agonists were measured in a Fluorescence Image Plate Reader (FLIPR from Molecular Devices, Crawley, England). The peak of the Ca^++-transient was considered as the relevant signal and the mean values of corresponding wells were analysed as described below.
(§2) The sigmoidal dose response curves were analysed by computerised curve-fitting, using the GraphPad Program. The EC50-value of a compound is the effective dose showing 50% of maximal effect. For mean curves the response to the agonist with the highest potency was normalised to 100%. For antagonist responses the IC50-value was calculated using non-linear regression.
(§3) The last columns indicate—without being limited thereto—for which action the compounds might be most suitable. Of course, since for some neurokinin receptors no data was determined, it is obvious that these compounds might be attributed to another suitable use.

NK3 = target: T1, NK3 (Homo sapiens, UniProt P29371); test: Signal transduction (ST), intracellular Ca++ (FLIPR), NK3; conditions: antagonist, read-out: NK3 pIC50 (converted)
T1 sequence (P29371 1-465): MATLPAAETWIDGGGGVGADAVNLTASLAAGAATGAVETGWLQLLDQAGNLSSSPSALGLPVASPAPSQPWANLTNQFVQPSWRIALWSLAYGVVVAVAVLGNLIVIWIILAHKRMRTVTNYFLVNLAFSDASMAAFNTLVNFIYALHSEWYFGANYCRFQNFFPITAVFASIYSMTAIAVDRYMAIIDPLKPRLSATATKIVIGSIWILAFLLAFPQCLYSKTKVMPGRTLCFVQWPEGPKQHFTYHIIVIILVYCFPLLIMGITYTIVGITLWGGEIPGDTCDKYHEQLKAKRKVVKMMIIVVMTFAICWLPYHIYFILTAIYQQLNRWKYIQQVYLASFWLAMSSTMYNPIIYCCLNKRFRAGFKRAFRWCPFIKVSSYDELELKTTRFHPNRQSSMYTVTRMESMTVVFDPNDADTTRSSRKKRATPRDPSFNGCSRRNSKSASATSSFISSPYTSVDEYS
Description: [The source words this procedure for another target and reports this target under the same test.] as §1, §2, §3

NK2 = target: T2, NK2 (Homo sapiens, UniProt P21452); test: Signal transduction (ST), intracellular Ca++ (FLIPR), NK2; conditions: antagonist, read-out: NK2 pIC50 (converted)
T2 sequence (P21452 1-398): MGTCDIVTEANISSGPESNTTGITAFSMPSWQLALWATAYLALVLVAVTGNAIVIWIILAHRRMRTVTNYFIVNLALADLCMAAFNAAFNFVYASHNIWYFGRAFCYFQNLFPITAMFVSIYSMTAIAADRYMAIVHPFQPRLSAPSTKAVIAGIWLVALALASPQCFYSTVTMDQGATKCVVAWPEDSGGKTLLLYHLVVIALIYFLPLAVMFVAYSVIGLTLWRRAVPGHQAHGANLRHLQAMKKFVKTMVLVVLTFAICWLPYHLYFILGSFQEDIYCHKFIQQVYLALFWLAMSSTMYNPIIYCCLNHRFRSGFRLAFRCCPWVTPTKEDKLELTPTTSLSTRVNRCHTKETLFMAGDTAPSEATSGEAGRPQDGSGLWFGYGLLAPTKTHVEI
Description: [The source words this procedure for another target and reports this target under the same test.] as §1, §2, §3

NK1, sequence (P25103 whole entry): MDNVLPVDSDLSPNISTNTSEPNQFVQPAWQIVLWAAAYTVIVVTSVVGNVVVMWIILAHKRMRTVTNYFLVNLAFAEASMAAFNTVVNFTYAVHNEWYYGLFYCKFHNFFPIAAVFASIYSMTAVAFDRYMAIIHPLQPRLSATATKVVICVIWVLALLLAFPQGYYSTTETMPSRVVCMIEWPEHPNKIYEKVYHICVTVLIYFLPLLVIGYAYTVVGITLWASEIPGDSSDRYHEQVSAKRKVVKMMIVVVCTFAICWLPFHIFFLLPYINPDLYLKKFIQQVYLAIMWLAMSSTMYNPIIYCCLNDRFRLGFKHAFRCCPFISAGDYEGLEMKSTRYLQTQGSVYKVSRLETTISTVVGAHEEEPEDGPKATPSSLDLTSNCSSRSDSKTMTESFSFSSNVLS

| Structure (SMILES) | IC50 (NK1) | IC50 (NK3) | IC50 (NK2) |
| --- | --- | --- | --- |
| O=C(c1cc(C(F)(F)F)cc(C(F)(F)F)c1)N1CC[C@H](N2CCC3(CC2)CCN(S(=O)(=O)c2cc(Cl)ccc2Cl)CC3)C[C@H]1Cc1ccccc1 [Compound 110] | 174 nM | 5130 nM |  |
| O=C(C1CCOC1)N1CCC2(CC1)CCN(C(=O)[C@H]1CCN(C(=O)c3cc(C(F)(F)F)cc(C(F)(F)F)c3)[C@H](Cc3ccccc3)C1)CC2 (stereo partly shown) [Compound 187] | 20 nM | > 10000 nM | 7080 nM |
| O=C(c1cc(C(F)(F)F)cc(C(F)(F)F)c1)N1CC[C@H](N2CCC3(CC2)CCN(S(=O)(=O)C=Cc2ccccc2)CC3)C[C@H]1Cc1ccccc1 [Compound 128] | 562 nM | > 10000 nM | 5370 nM |
| O=C(Cn1cnnn1)N1CCC2(CC1)CCN([C@H]1CCN(C(=O)c3cc(C(F)(F)F)cc(C(F)(F)F)c3)[C@H](Cc3ccccc3)C1)CC2 [Compound 77] | 45.7 nM | > 10000 nM | ~8130 nM |
| Cc1nnsc1C(=O)N1CCC2(CC1)CCN(C(=O)[C@H]1CCN(C(=O)c3cc(C(F)(F)F)cc(C(F)(F)F)c3)[C@H](Cc3ccccc3)C1)CC2 [Compound 190] | 6.17 nM | 3550 nM | 1620 nM |
| Cc1ccc(C(=O)N2CCC3(CC2)CCN([C@H]2CCN(C(=O)c4cc(C(F)(F)F)cc(C(F)(F)F)c4)[C@H](Cc4ccccc4)C2)CC3)s1 [Compound 30] | 692 nM | > 10000 nM | 7940 nM |
| O=C(c1cc(C(F)(F)F)cc(C(F)(F)F)c1)N1CC[C@H](CN2CCC3(CCN(Cc4ccccc4)CC3)CC2)C[C@H]1Cc1ccccc1 [Compound 178] | 437 nM | > 10000 nM | 4900 nM |
| O=C(c1cc(C(F)(F)F)cc(C(F)(F)F)c1)N1CC[C@H](N2CCC3(CC2)CCN(S(=O)(=O)c2cc(Cl)c(Cl)cc2Cl)CC3)C[C@H]1Cc1ccccc1 [Compound 115] | 490 nM | > 10000 nM | > 10000 nM |
| O=C1CC2(CCN1Cc1ccoc1)CCN([C@@H]1CCN(C(=O)c3cc(C(F)(F)F)cc(C(F)(F)F)c3)[C@H](Cc3ccccc3)C1)CC2 [Compound 198] | 339 nM | > 10000 nM | 4790 nM |
| O=C(c1cc(C(F)(F)F)cc(C(F)(F)F)c1)N1CC[C@H](N2CCC3(CC2)CCN(S(=O)(=O)c2c(Cl)sc(Cl)c2Br)CC3)C[C@H]1Cc1ccccc1 [Compound 99] | 562 nM | > 10000 nM | > 10000 nM |
| O=C1CC2(CCN1Cc1ccoc1)CCN([C@H]1CCN(C(=O)c3cc(C(F)(F)F)cc(C(F)(F)F)c3)[C@H](Cc3ccccc3)C1)CC2 [Compound 199] | 37.2 nM | 851 nM | 2750 nM |
| O=C(c1ccccc1Cl)N1CCC2(CC1)CCN([C@H]1CCN(C(=O)c3cc(C(F)(F)F)cc(C(F)(F)F)c3)[C@H](Cc3ccccc3)C1)CC2 [Compound 42] | 61.7 nM | 9330 nM | 8910 nM |
| O=C1CCC(C(=O)N2CCC3(CC2)CCN([C@H]2CCN(C(=O)c4cc(C(F)(F)F)cc(C(F)(F)F)c4)[C@H](Cc4ccccc4)C2)CC3)=NN1 [Compound 58] | 64.6 nM | > 10000 nM | > 10000 nM |
| O=C(c1ccc2c(c1)OCO2)N1CCC2(CC1)CCN([C@H]1CCN(C(=O)c3cc(C(F)(F)F)cc(C(F)(F)F)c3)[C@H](Cc3ccccc3)C1)CC2 [Compound 62] | 186 nM | > 10000 nM | > 10000 nM |
| O=C(c1cc(C(F)(F)F)cc(C(F)(F)F)c1)N1CC[C@H](N2CCC3(CC2)CCN(S(=O)(=O)c2ccc(Cl)cc2)CC3)C[C@H]1Cc1ccccc1 [Compound 108] | 324 nM | 3980 nM | 2630 nM |
| O=C(CC1C=CCC1)N1CCC2(CC1)CCN([C@H]1CCN(C(=O)c3cc(C(F)(F)F)cc(C(F)(F)F)c3)[C@H](Cc3ccccc3)C1)CC2 (stereo partly shown) [Compound 70] | 81.3 nM | > 10000 nM | 5370 nM |
| COc1cccc(CCC(=O)N2CCC3(CC2)CCN([C@H]2CCN(C(=O)c4cc(C(F)(F)F)cc(C(F)(F)F)c4)[C@H](Cc4ccccc4)C2)CC3)c1 [Compound 83] | 36.3 nM | 8910 nM | 2570 nM |

| Structure (SMILES) | IC50 (NK1) | IC50 (NK3) | IC50 (NK2) |
| --- | --- | --- | --- |
| O=C(c1cc(C(F)(F)F)cc(C(F)(F)F)c1)N1CC[C@H](N2CCC3(CC2)CCN(S(=O)(=O)c2cc(Br)c(Br)s2)CC3)C[C@H]1Cc1ccccc1 [Compound 98] | 977 nM | > 10000 nM | > 10000 nM |
| O=C(C(CO)c1ccccc1)N1CCC2(CC1)CCN([C@H]1CCN(C(=O)c3cc(C(F)(F)F)cc(C(F)(F)F)c3)[C@H](Cc3ccccc3)C1)CC2 (stereo partly shown) [Compound 88] | 41.7 nM | > 10000 nM | 3020 nM |
| O=C(c1cc(C(F)(F)F)cc(C(F)(F)F)c1)N1CC[C@H](N2CCC3(CCN(C(=O)C4(c5ccccc5)CCCC4)CC3)CC2)C[C@H]1Cc1ccccc1 [Compound 90] | 355 nM | > 10000 nM | 5370 nM |
| O=C(c1ccncc1)N1CCC2(CC1)CCN([C@H]1CCN(C(=O)c3cc(C(F)(F)F)cc(C(F)(F)F)c3)[C@H](Cc3ccccc3)C1)CC2 [Compound 51] | 29.5 nM | > 10000 nM | 3630 nM |
| O=C(C1CC1)N1CCC2(CC1)CCN([C@H]1CCN(C(=O)c3cc(C(F)(F)F)cc(C(F)(F)F)c3)[C@H](Cc3ccc(Cl)c(Cl)c3)C1)CC2 [Compound 131] | 17.4 nM | 1410 nM | 776 nM |
| O=C(c1ccsc1)N1CCC2(CC1)CCN(C(=O)[C@H]1CCN(C(=O)c3cc(C(F)(F)F)cc(C(F)(F)F)c3)[C@H](Cc3ccccc3)C1)CC2 [Compound 189] | 28.8 nM | > 10000 nM | 6760 nM |
| Cc1noc(C)c1C(=O)N1CCC2(CC1)CCN([C@H]1CCN(C(=O)c3cc(C(F)(F)F)cc(C(F)(F)F)c3)[C@H](Cc3ccccc3)C1)CC2 [Compound 35] | 19.1 nM | > 10000 nM | > 10000 nM |
| CC(C)(C)C(=O)N1CCCC2(CCCN([C@H]3CCN(C(=O)c4cc(C(F)(F)F)cc(C(F)(F)F)c4)[C@H](Cc4ccccc4)C3)C2)C1 (stereo partly shown) [Compound 207] | 589 nM | 5750 nM | 1910 nM |
| Cc1ccccc1S(=O)(=O)N1CCC2(CCN([C@H]3CCN(C(=O)c4cc(C(F)(F)F)cc(C(F)(F)F)c4)[C@H](Cc4ccccc4)C3)CC2)CC1 [Compound 103] | 50.1 nM | 1510 nM | 2510 nM |
| O=C(C1CC1)N1CCC2(CC1)CCN(C1CCN(C(=O)c3cc(Cl)cc(Cl)c3)C(Cc3ccccc3)C1)CC2 (stereo not shown) [Compound 155] | 158 nM |  | 6460 nM |
| N#Cc1ccccc1S(=O)(=O)N1CCC2(CCN([C@H]3CCN(C(=O)c4cc(C(F)(F)F)cc(C(F)(F)F)c4)[C@H](Cc4ccccc4)C3)CC2)CC1 [Compound 118] | 30.9 nM | 1510 nM |  |
| NC(=O)C1(C(=O)N2CCC3(CC2)CCN([C@H]2CCN(C(=O)c4cc(C(F)(F)F)cc(C(F)(F)F)c4)[C@H](Cc4ccccc4)C2)CC3)CC1 [Compound 14] | 31.6 nM |  | > 10000 nM |
| CC1(C(=O)N2CCC3(CC2)CCN([C@H]2CCN(C(=O)c4cc(C(F)(F)F)cc(C(F)(F)F)c4)[C@H](Cc4ccccc4)C2)CC3)CC1 [Compound 11] | 105 nM |  | 5370 nM |
| O=C(c1cc(C(F)(F)F)cc(C(F)(F)F)c1)N1CC[C@H](N2CCC3(CC2)CCN(S(=O)(=O)c2cc(Cl)sc2Cl)CC3)C[C@H]1Cc1ccccc1 [Compound 97] | 87.1 nM | ~10000 nM |  |
| O=C(c1cc(C(F)(F)F)cc(C(F)(F)F)c1)N1CC[C@H](N2CCC3(CC2)CCN(S(=O)(=O)c2ccccc2Cl)CC3)C[C@H]1Cc1ccccc1 [Compound 106] | 60.3 nM | 525 nM |  |
| Cc1cc(C)cc(C(=O)N2CCC(N3CCC4(CCN(C(=O)C5CC5)CC4)CC3)CC2Cc2ccccc2)c1 (stereo not shown) [Compound 153] | 145 nM |  | > 10000 nM |
